Legend:
high moisture corn = assay: Preservation of high moisture corn in ventilated cans (time until temperature exceeds room temperature); details: for Weeks Effective: corn 25 percent moisture, 70-72 F
Experimental: High moisture corn (25 percent moisture) was treated with various methylene and polyoxymethylene esters of propionic or acetic acid of various dosages. The esters were applied to the corn in a mixer for one minute at 32 RPM. Three replicate two gallon ventilated cans were filled with the treated corn. The cans were then held at a temperature of 70°-72° F. Temperature readings were taken semi-weekly by means of thermocouples in the center of each can. When the temperature exceeded constant room temperature for at least an 8-hour period the treatment was considered broken.

Rhizopus sp. = assay: Concentration for 90% control of pathogen on corn seeds (Table V), Rhizopus sp.; format: cell-based; details: 5 days after treatment
Experimental: (§1) A small amount of acetone was added to the bis-ester to make specific volume, plus a small portion of emulsifier making it into a slurry. This preparation was diluted with water to the desired concentration. Solution was then evenly distributed on the wall of a glass jar. High moisture feedcorn with natural infection was stored frozen after harvest until used for this test. The corn seeds were rolled in the jar until they were coated and the solution was completely absorbed on them.
(§2) Following the treatment, the corn seeds were plated on Potato Dextrose Agar plates. For comparison, untreated corn seeds were also plated. Propionic acid was also tested for comparison.
(§3) A variety of bis-esters was tested for the control of seed- and soil-borne pathogens during the storage of corn seeds (Zea mays) by the procedure of Example 11. For comparison, propionic acid was also tested.
(§4) Control of each pathogen was determined by mycelial growth in millimeters in the treated seeds relative to untreated seeds. Mycelial growth of Rhizopus species and Fusarium species was evaluated 5 days after treatment. Mycelial growth in Aspergillus niger was evaluated 14 days after treatment.
(§5) The bis-ester tested and the concentration of active ingredient in ounces per 100 lbs. of corn seeds for 90 percent control of each pathogen species are tabulated in Table V.

All Species = assay: Control of seed- and soil-borne pathogens during storage of corn seeds (Table IV), all species; format: cell-based, Rhizopus, Penicillium, Fusarium; details: relative to untreated check
Experimental: A variety of bis-esters was tested for the control of seed- and soil-borne pathogens during storage of corn seeds (Zea mays) by the following procedure.
as §1, §2
The percentage control of all species was based on the total sum average of mycelial growth in millimeters of all species in the treated seeds relative to the untreated check. The fast growing Rhizopus was evaluated 7 days after treatment, the other fungi after 14 days.

Aspergillus niger = assay: Concentration for 90% control of pathogen on corn seeds (Table V), Aspergillus niger; format: cell-based; details: corn seeds; 14 days after treatment
Experimental: as §1, §2, §3, §4, §5

Fusarium sp. = assay: Concentration for 90% control of pathogen on corn seeds (Table V), Fusarium sp.; format: cell-based; details: 5 days after treatment
Experimental: as §1, §2, §3, §4, §5

[1] = Solubility of insecticides in methylene bispropionate; format: physicochemical; details: solvent methylene bispropionate
Experimental: Methylene bispropionate was tested as a solvent for various insecticides. […] O,S-dimethylN-acetyl phosphoramidothioate was soluble in methylene bispropionate to the extent of 5 percent by weight. Chlordane was soluble in methylene bispropionate to the extent of at least 75 percent by weight.

Row | Compound | % Control All Species (All Species; 1.0 Oz./100 Lbs.) [%] | % Control All Species (All Species; 2.5 Oz./100 Lbs.) [%] | % Control All Species (All Species; 6.4 Oz./100 Lbs.) [%] | % Control All Species (All Species; 16 Oz./100 Lbs.) [%] | further results
1 | CCC(=O)OCOCOC(=O)CC [Oxybismethylene Propionate, Oxybismethylene Bispropionate] |  |  |  |  | Weeks Effective (high moisture corn; 2 Oz/Bu): 6 Weeks; Weeks Effective (high moisture corn; 3 Oz/Bu): 12 Weeks; Weeks Effective (high moisture corn; 4 Oz/Bu): > 12 Weeks; Weeks Effective (high moisture corn; 5 Oz/Bu): > 12 Weeks; effectiveness in preservation of high moisture corn (in words) (high moisture corn; from Table II): remarkably superior to propionic acid in the preservation of high moisture corn
2 | CC(=O)OCOC(C)=O [Methylene Bisacetate] |  |  |  |  | Weeks Effective (high moisture corn; 3 Oz/Bu): 6 Weeks; Weeks Effective (high moisture corn; 6 Oz/Bu): > 12 Weeks
3 | CCC(=O)O [Propionic acid, reference compound] | 28 | 60 | 99 | 99 | Conc. for 90% Control, Rhizopus sp. (Rhizopus sp.): 3.8 oz./100 lbs.; Conc. for 90% Control, Aspergillus niger (Aspergillus niger): 3.4 oz./100 lbs.; Weeks Effective (high moisture corn; 2 Oz/Bu): 6 Weeks; Weeks Effective (high moisture corn; 3 Oz/Bu): 6 Weeks; Weeks Effective (high moisture corn; 4 Oz/Bu): > 12 Weeks; Weeks Effective (high moisture corn; 6 Oz/Bu): > 12 Weeks; Conc. for 90% Control, Fusarium sp. (Fusarium sp.): 9.6 oz./100 lbs.
4 | CCCC(=O)OCOCOC(=O)CCC [Oxybismethylene Bisbutyrate] | 100 | 100 | 100 | 100 | Conc. for 90% Control, Rhizopus sp. (Rhizopus sp.): 1.1 oz./100 lbs.; Conc. for 90% Control, Aspergillus niger (Aspergillus niger): 0.57 oz./100 lbs.; Conc. for 90% Control, Fusarium sp. (Fusarium sp.): 1.0 oz./100 lbs.
5 | CCOC(=O)CC(SP(=S)(OC)OC)C(=O)OCC (stereo not drawn) [Malathion, S-[1,2-bis(ethoxycarbonyl)ethyl]-O,O-dimethyl phosphorodithioate] |  |  |  |  | miscibility with methylene bispropionate (in words) [1]: miscible with methylene bispropionate in all proportions
6 | CC(=O)OC(C)OC(C)=O [Ethylidene Bisacetate] | 60 | 87 | 93 | 100 | 
7 | CCC(=O)OC(OC(=O)CC)c1ccccc1 [Benzylidene Bispropionate] | 46 | 54 | 79 | 91 | 
8 | CCC(=O)OC(C)OC(=O)CC [Ethylidene Bispropionate] | 44 | 50 | 83 | 91 | 
9 | CC(C)C(=O)OCOC(=O)C(C)C [Methylene Bisisobutyrate] | 98 | 99 | 100 | 98 | Conc. for 90% Control, Rhizopus sp. (Rhizopus sp.): 3.2 oz./100 lbs.; Conc. for 90% Control, Aspergillus niger (Aspergillus niger): * (No Control at 2.5 oz./100 lbs.); Conc. for 90% Control, Fusarium sp. (Fusarium sp.): 2.0 oz./100 lbs.
10 | COP(=O)(NC(C)=O)SC (stereo not shown) [O,S-dimethylN-acetyl phosphoramidothioate] |  |  |  |  | solubility in methylene bispropionate [1]: 5 percent by weight
11 | CC(=O)OCOCOC(C)=O [Oxybismethylene Acetate, Oxybismethylene Bisacetate] |  |  |  |  | Weeks Effective (high moisture corn; 3 Oz/Bu): 5 Weeks; Weeks Effective (high moisture corn; 6 Oz/Bu): > 12 Weeks
12 | CCOP(=S)(OCC)Oc1ccc([N+](=O)[O-])cc1 [parathion, O,O-diethyl-O-p-nitrophenyl phosphorothioate] |  |  |  |  | miscibility with methylene bispropionate (in words) [1]: miscible with methylene bispropionate in all proportions
13 | CC(C)C(=O)OCOCOC(=O)C(C)C [Oxybismethylene Bisisobutyrate] | 73 | 87 | 100 | 100 | Conc. for 90% Control, Rhizopus sp. (Rhizopus sp.): 1.2 oz./100 lbs.; Conc. for 90% Control, Aspergillus niger (Aspergillus niger): 0.88 oz./100 lbs.; Conc. for 90% Control, Fusarium sp. (Fusarium sp.): 0.88 oz./100 lbs.
14 | ClC1=C(Cl)C2(Cl)C3C(Cl)C(Cl)CC3C1(Cl)C2(Cl)Cl (stereo not shown) [Chlordane] |  |  |  |  | solubility in methylene bispropionate [1]: at least 75 percent by weight
15 | CCC(=O)OC(OC(=O)CC)C(Cl)(Cl)Cl [2,2,2-Trichloroethylidene Bispropionate] | 8 | 54 | 74 |  | % Control All Species (All Species; 18 Oz./100 Lbs.): 89%
